For series [1], the system named is myocardial dysfunction resulting from globally induced ischemia during cardiac surgical procedures. In kind it is in vivo, human. Here is the method:
B. A preconditioning study was performed in human patients scheduled for surgery.
Inclusion criteria were: • Males or females aged 18 or older • Patients with documented coronary artery disease undergoing CABG with an ejection fraction (EF) of 35% based on echocardiography, radionuclide imaging or cardiac catheterization done within eight weeks of surgery. (If more than one method was used to evaluate EF during this period, the mean values of the various methods were 35%). • Patients undergoing single or double valve replacement with documented coronary artery disease also undergoing CABG; or patients undergoing single or double valve replacement without CABG • Serum creatinine of <2.35 mg/dl • For females of childbearing potential, a negative pregnancy test. • Signed consent forms.
The test article, placebo or ribose, was dispensed according to computer-generated randomization schedule either for patients undergoing CABG only or for patients undergoing heart valve surgery +/−CABG. All patients received a high dose narcotic anaesthesia technique consisting of either fentanyl (50-100 μg/kg) or sufentanil (10-20 μg/kg) and midazolam. No restriction was placed on the type of anaesthetic agents administered. The anaesthesiologists and surgeons responsible for the care of the patents made the clinical decision to use inotropic support, intra-aortic balloon pump support or post bypass circulatory support based on their knowledge of patients requirements and accepted medical practice and without regard to test article status. The test article infusion was started intravenously at the time of aortic cross clamping and continued until the pulmonary artery catheters introducer was removed or for five days (120) hours whichever occurred first. The surgeons responsible for the clinical care of the patients removed the pulmonary artery catheter cordis without regard to test article stats.
Hemodynamic measurements consisting of heart rate, blood pressure, pulmonary artery pressures, pulmonary capillary wedge pressure (PCWP), central venous pressure (CVP) and thermodilution cardiac index (CI) were obtained at the following time intervals: immediately prior to induction of anaesthesia, post induction of anaesthesia prior to sternotomy, post sternotomy prior to initiation of cardiopulmonary bypass, upon successful termination of cardiopulmonary bypass prior to sternal closure and prior to reversal of heparinization with protamine, post closure of the sternum, upon arrival in the intensive care unit and at one or two hour intervals until the pulmonary artery a catheter was removed.
Transesophageal echocardiography data (H.P. Sonos OR, 5.0 MHz, Andover, Mass.) was collected at the following time intervals: post induction of anaesthesia prior to sternotomy, and immediately post closure of the sternum. Transthoracic echocardiography (H.P. Sonos 1500. 2.5 MHz, Andover, Mass.) measurements were made on day three and day seven of the study period. For both the transesophageal and transthoracic echocardiograms, the following long axis and short axis mid-papillary area changes were measured in triplicate by acoustic quantification techniques: end diastolic area (EDA), end systolic area (ESA), fractional area change (FAC), +dA/dt and −dA/dt. All area change data were also analyzed by manual off line analysis. EF was also determined off line using a long axis view, In addition, regional wall motion was quantified as the following: normal=1, hypokinetic=2, akinetic=3 and dyskinetic=4. The wall motion index score (WMIS) and percentage normal myocardium were calculated by reading a maximum of sixteen segments. Echocardiography data for evaluating wall motion and area change was analyzed only if greater than 75% of the endocardial border could be visualized through a complete cardiac cycle. Off line analysis was performed on an Image View echocardiography workstation (Nova Microsonics, Allendale, N.J.). […]

The test system of series [2] is patients undergoing OPCABG. Description: metabolically directed protocol: oral D-ribose prior to and following OPCABG. In kind it is in vivo, human. The text has this: (§1) Following the initial study described in Example 2, 366 consecutive patients, 41-88 years of age, undergoing OPCABG were enrolled. Of these, 89 had recent MIs and seven presented with MIs within one to seven days. Prospectively collected data included comorbidities, hemodynamics and outcomes. All patients were managed with a protocol emphasizing normoglycemia, normothermia and reduced inflammation. Group 1 (n=308) received multiple oral doses (5 gram/dose) of D-ribose prior to and following surgery. […] Otherwise, both groups had similar preoperative characteristics including ejection fraction (EJ) and Society for Thoracic Surgery (STS) Risk Indices with nonsignificant trends in the increased comorbidities in Group 1.

Series [3] concerns acute, first response MI patients. Description: first response acute MI patients given D-ribose (subset of Group 1). In kind it is in vivo, human. The conditions noted are these: seven first response MI patients.
Excerpt: as §1
A. While these studies are promising, neither replicates the clinical situation of a patient presenting at first response with an acute myocardial infarction, where time is of the essence. In most cases, MI is a spontaneous event, but an MI can be induced during a procedure such as angiogram, angioplasty or dobutamine echocardiography. Such a patient is generally in the process of compromising cardiac function.
It should also be mentioned that these seven patients are included in Group 1 of Table I. With preloading with D-ribose, they were able to maintain and slightly increase their CI in comparison to the total group.

The subject of the next series is healthy dog hearts. The conditions noted are these: administration immediately at reperfusion and continuing for at least four days; cited from earlier work.
Series [4] concerns rats subjected to an anterior MI. The conditions noted are these: intravenous ribose for 14 days previous to the inducement of MI; cited from earlier work.
[5] abbreviates: Group 1, oral D-ribose, p<0.001 versus Group 2.

For the compound `O=C[C@H](O)[C@H](O)[C@H](O)CO` [D-ribose], the “patients who developed hypoglycemia (fingerstick glucose <70 mg/dl)” value in series [1] (both, human, in vivo) came to 28%. Moreover, in series [1] (human, in vivo), the lowest glucose level is 31 mg/dL, the “mean glucose level in those patients developing hypoglycemia” value is 58 mg/dL, the “neurological or other clinical symptoms associated with hypoglycemia” value is “None” and the “subjects in whom study drug infusion was stopped because of hypoglycemia” value is given as “two”. Further, the “mean Day 7 EF” value in series [1] (ribose treated patients, Day 7, echocardiography, IV infusion 100 mg/kg/hr) is 41%. In addition, the “mean baseline EF” value in series [1] (ribose treated patients, baseline, echocardiography, IV infusion 100 mg/kg/hr) is recorded as 44%. In series [2] (Group 1), the postoperative death entry was “one”. Further, the “time in intensive care” value in series [2] (Group 1 (n=308), multiple oral doses 5 gram/dose prior to and following surgery, trend not significant) worked out at 72 h. In addition, the “requirement for IABP” value in series [2] (Group 1 (n=308), oral D-ribose, trend not significant) came out at 12%. In addition, in series [2] (setting [5]), the “increase in CI after surgery” value came to 0.8 and the “patients demonstrating an increase in CI after OPCABG” value came out at 86%. Also, the “Postop CI” value in series [2] (Group 1, postoperative cardiac index) was determined as 3.0 ± 0.7. Also, in series [2] (Group 1, preoperative cardiac index), the “Preop CI” value is recorded as 2.3 ± 0.5. Moreover, the “Change (Preop CI to Postop CI)” value in series [2] (Group 1 of Table I) is “+0.07”. Besides, in series [3], the “Change (Preop CI to Postop CI)” value is given as “+0.41”, the “Postop CI” value is listed as 2.60 ± 0.4 and the “Preop CI” value turned out to be 2.19 ± 0.7. Moreover, the ATP recovery entry in the series on healthy dog hearts is “enhanced ATP recovery”. Also, in series [4], the “parameters of heart function (LV diastolic diameter, LV systolic diameter, ejection fraction, shortening fraction)” value is given as “Significant improvement”.

Source of the values: patent US20170326165A1, “USE OF RIBOSE IN FIRST RESPONSE TO ACUTE MYOCARDIAL INFARCTION” (BIOENERGY, INC., priority 2008, published 2017).
